Measurements published in article PMC11783601, “Analogue-Sensitive Inhibition of Histone Demethylases Uncovers Member-Specific Function in Ribosomal Protein Synthesis” (Journal of the American Chemical Society, 2025).
Entries after “also recorded” stand apart in the source; their conditions may differ.

Legend:
Assay in all cases: H3K9me3 Western blot of nuclear extracts of transfected HEK293T cells
Format in all cases: cell-based
full-length KDM4B-F186A = biological target: T1, full-length KDM4B-F186A (Homo sapiens, UniProt O94953, F186A); conditions: for inhibition of KDM4B-F186A (asKDM4B) H3K9me3 demethylation: 10 μM concentration; for inhibition of KDM4B-F186A H3K9me3 demethylation, dose-dependent: 10, 20 µM
T1 construct: we generated the full-length as mutants of the remaining KDM4s; host or cells: HEK293T
T1 sequence (O94953 1-1096 F186A): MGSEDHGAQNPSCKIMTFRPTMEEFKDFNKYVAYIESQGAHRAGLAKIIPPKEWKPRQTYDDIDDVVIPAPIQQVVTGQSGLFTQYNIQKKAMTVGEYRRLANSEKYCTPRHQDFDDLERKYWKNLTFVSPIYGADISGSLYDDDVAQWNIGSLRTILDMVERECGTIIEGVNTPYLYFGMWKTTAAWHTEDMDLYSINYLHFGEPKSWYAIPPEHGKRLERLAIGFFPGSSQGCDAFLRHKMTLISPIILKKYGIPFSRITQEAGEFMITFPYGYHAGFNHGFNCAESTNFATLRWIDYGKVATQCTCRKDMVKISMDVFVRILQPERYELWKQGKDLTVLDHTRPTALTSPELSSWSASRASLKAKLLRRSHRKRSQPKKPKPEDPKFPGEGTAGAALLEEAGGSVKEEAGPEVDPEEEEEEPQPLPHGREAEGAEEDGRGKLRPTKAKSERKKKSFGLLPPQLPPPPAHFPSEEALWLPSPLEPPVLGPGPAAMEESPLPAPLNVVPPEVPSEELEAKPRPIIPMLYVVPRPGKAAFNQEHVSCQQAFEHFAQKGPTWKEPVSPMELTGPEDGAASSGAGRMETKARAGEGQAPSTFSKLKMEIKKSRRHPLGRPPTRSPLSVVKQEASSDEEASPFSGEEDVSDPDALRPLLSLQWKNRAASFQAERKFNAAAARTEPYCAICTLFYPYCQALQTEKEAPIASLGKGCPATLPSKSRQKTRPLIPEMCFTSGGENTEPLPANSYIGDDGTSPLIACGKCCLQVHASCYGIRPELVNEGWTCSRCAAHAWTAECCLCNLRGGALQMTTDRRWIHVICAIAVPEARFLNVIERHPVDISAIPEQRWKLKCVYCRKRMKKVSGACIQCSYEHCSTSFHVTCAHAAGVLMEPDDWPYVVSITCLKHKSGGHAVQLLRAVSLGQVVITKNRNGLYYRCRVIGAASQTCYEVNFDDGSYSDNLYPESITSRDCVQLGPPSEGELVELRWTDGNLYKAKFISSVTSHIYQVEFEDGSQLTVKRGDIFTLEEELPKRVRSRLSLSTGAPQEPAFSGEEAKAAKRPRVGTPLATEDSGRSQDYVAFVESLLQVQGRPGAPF
From the text: (§1) KDM4B and C are structurally homologous to KDM4A, and KDM4D and E have a catalytic pocket near-identical to that of KDM4A but lack the Tudor and PHD domains known to bind trimethylated lysine in histones (Figure 1B).[11] HEK293T cells were transfected with full-length wild type KDM4B-E or their respective mutants. Western blot analysis of nuclear preparations using the H3K9me3 antibody confirmed all of the proteins to be catalytically active (Figures 4G–N and S32–S35).
(§2) KDM4A mammalian expression plasmid in CMV vector was purchased from Addgene (plasmid #24180). KDM4B mammalian expression plasmid in CMV vector was purchased from Addgene (plasmid #24181). KDM4C mammalian expression plasmid in CMV vector was purchased from Addgene (plasmid #24214). KDM4D mammalian expression plasmid in pReciever vector was purchased from Genecopoia (EX-Z0917-M06.) KDME mammalian expression plasmid in pRP-EXP was designed from Vector Builder. The KDM4A-F185A, KDM4B-F186A, KDM4C -F187A, KDM4D-F189A, and KDM4E F186A mutants were generated using Quikchange Lightening Mutagenesis Kit (Agilent) according to manufacturer’s protocol and confirmed by Sanger […]
(§3) HEK293T/17 cells (ATCC) were grown in Delbucco’s Modified Eagle Medium (DMEM) (Corning) with 10% FBS at 37 °C (Corning), 5% CO2, and 95% relative humidity in a 6-well cell culture plate. When cells reached 90% confluency, 3 µg of plasmid and 6 µg lipofectamine 2000 (Invitrogen: 11668019) were incubated with 100 µL OptiMem. After 5 minutes the plasmid and lipofectamine were combined and incubated at room temperature for 20 minutes and added to the cell culture disk. Cells were returned to the incubator to grow for 4-6 hours. This was followed by treatment of compound treatment (n-octyl IOX121,22 or a specific NOG ester) at indicated concentrations and further culture for specified time. The media was removed, and cells were washed with ice cold PBS (Corning), then trypsinized with TrpLE Express (Gibco). The trypsinization reaction was quenched with DMEM 10% FBS and cells were pelleted then washed once with ice cold PBS. The nuclear extracts were generated by first resuspending the cell pellets in 700 µL nuclear isolation buffer (15 mM Tris pH 7.5, 60 mM KCl, 15 mM NaCl, 5 mM MgCl2, 1 mM CaCl2, 1mm DTT, 2 mM Na3Van, 250 mM sucrose, 1X Pierce protease inhibitor (Thermo Fisher #PIA32955), 1 mM PMSF, 0.3% NP40 diluted to volume with MilliQ H2O) and incubated on ice for 5 minutes.23 The samples were then pelleted by centrifugation at 2000 rcf for 5 minutes.
(§4) The supernatant was removed, and the pelleted nuclei were resuspended in 200 µL Pierce IP lysis buffer (Thermo Fisher #87787) containing 1X Pierce protease inhibitor and left on ice for 5 minutes. The nuclei were then sonicated at 100% amp for 5 minutes (pulsed 1 minute “on”, 20 seconds “rest”) using a Qsonica-Q700, cuphorn sonicator. The samples were pelleted once again at 2000 rcf for 5 minutes and the supernatant containing the nuclear extracts were collected. MgCl2 (1M) solution was added to each sample give a final concentration of 6mM. […]
(§5) Prism with the corresponding bars representing the mean and standard deviation of the population.
(§6) For the time dependent imaging, cells containing the transfected KDM4A mutant were identified by their HA signal. These cells were used to create a selection which was then imposed onto the respective H3K9me3 or BrdU images. The mean signal was then measured for H3K9me3 or BrdU only within the cells expressing the KDM4A mutant. To compare changes in H3K9me3 or BrdU between trials, the quantification values were normalized to the mean signal at t=0. The normalized, mean signal and error for H3K9me3 or BrdU were then plotted in GraphPad Prism.
(§7) 21. General protocol for Western blotting
(§8) Assay samples were mixed with appropriate volume of 4X Laemmli Dye (Bio-Rad), heated at 95 °C for 5 minutes and loaded onto 4–12% Criterion™ XT Bis-Tris protein gels (Bio-Rad #3450123) or in-house prepared SDS-polyacrylamide gel and subjected to electrophoresis […]

full-length KDM4C-F187A = biological target: T2, full-length KDM4C-F187A (Homo sapiens, UniProt Q9H3R0, F187A); conditions: 25-200 µM
T2 construct: we generated the full-length as mutants of the remaining KDM4s; host or cells: HEK293T
From the text: as §1, §2, §3, §4, §5, §6, §7, §8

full-length KDM4D-F189A = biological target: T3, full-length KDM4D-F189A (Homo sapiens, UniProt Q6B0I6, F189A); conditions: 25-200 µM
T3 construct: we generated the full-length as mutants of the remaining KDM4s; host or cells: HEK293T
From the text: as §1, §2, §3, §4, §5, §6, §7, §8

full-length KDM4E-F186A = biological target: T4, full-length KDM4E-F186A (Homo sapiens, UniProt B2RXH2, F186A); conditions: 25-200 µM
T4 construct: we generated the full-length as mutants of the remaining KDM4s; host or cells: HEK293T
From the text: as §1, §2, §3, §4, §5, §6, §7, §8

T4 sequence (B2RXH2 whole entry F186A): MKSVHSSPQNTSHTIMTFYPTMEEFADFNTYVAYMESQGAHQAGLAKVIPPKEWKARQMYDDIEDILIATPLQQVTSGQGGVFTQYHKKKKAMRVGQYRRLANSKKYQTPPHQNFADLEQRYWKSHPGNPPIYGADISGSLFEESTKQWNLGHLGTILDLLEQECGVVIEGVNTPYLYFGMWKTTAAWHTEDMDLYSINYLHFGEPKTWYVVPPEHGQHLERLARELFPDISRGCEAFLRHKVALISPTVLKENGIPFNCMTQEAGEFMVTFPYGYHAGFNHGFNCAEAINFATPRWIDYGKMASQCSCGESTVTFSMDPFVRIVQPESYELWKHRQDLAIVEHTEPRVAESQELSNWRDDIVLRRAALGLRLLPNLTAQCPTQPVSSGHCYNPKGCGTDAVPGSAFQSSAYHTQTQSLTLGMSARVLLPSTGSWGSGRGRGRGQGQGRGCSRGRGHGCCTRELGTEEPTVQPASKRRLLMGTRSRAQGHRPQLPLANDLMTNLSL
T3 sequence (Q6B0I6 whole entry F189A): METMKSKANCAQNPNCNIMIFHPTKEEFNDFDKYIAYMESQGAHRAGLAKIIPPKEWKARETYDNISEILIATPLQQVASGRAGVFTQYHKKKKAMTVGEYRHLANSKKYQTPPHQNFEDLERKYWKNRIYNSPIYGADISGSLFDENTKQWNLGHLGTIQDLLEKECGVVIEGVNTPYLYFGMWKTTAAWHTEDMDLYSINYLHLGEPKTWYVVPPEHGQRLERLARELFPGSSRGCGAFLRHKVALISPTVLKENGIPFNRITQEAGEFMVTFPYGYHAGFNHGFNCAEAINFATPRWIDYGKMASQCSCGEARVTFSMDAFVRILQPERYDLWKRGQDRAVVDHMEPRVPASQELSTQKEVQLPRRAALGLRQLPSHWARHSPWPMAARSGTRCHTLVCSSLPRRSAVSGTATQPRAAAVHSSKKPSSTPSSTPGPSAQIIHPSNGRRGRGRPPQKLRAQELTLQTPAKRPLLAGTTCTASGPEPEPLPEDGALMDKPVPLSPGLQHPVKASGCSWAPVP
T2 sequence (Q9H3R0 whole entry F187A): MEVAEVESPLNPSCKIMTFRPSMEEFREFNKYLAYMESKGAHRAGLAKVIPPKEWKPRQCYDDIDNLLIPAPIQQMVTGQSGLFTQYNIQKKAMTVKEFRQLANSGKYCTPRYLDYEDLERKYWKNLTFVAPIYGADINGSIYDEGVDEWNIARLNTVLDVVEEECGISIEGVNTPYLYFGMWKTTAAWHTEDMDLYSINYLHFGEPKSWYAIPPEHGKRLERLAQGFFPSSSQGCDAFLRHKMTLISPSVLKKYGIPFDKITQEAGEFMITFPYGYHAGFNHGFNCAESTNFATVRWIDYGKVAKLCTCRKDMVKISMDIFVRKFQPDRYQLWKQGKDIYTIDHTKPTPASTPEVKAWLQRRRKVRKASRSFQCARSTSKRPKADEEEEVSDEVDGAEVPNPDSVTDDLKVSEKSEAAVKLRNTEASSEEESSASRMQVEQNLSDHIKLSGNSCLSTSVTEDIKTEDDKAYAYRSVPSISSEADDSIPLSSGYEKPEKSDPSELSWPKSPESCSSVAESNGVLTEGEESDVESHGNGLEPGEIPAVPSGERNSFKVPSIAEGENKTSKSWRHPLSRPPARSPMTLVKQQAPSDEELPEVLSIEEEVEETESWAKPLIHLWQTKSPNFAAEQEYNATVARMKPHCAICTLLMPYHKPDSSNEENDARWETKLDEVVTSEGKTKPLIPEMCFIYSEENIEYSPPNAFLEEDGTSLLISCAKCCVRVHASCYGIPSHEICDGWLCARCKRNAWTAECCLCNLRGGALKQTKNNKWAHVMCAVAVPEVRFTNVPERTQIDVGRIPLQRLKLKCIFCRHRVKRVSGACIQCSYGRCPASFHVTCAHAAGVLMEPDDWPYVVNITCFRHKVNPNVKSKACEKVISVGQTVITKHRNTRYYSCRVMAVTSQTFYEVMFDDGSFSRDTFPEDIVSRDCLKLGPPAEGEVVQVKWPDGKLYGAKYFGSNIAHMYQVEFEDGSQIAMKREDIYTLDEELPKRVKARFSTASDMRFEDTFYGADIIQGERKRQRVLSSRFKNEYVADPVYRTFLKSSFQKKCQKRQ

SMILES | inhibition of KDM4B-F186A (asKDM4B) H3K9me3 demethylation (full-length KDM4B-F186A) | inhibition of KDM4B-F186A H3K9me3 demethylation, dose-dependent (full-length KDM4B-F186A) | inhibition of KDM4C-F187A H3K9me3 demethylation (full-length KDM4C-F187A) | inhibition of KDM4D-F189A H3K9me3 demethylation (full-length KDM4D-F189A) | inhibition of KDM4E-F186A H3K9me3 demethylation (full-length KDM4E-F186A)
CCCCCCCCOC(=O)C(=O)NC(CC(C)C)C(=O)O [6A, L-Leu octyl-ester NOG] | robust inhibition | Dose-dependent inhibition; also recorded: significantly reduced | Dose-dependent inhibition; also recorded: significantly reduced | Dose-dependent inhibition; also recorded: significantly reduced | Dose-dependent inhibition; also recorded: significantly reduced
CC(C)CC(NC(=O)C(=O)OCc1cccc(C(F)(F)F)c1)C(=O)O [6B, L-Leu TFMB-ester NOG] | robust inhibition | Dose-dependent inhibition; also recorded: significantly reduced | significantly reduced | Inhibition; also recorded: significantly reduced | significantly reduced
